Laboratory results: patent publication EP0259014A2, “5-Deoxy-5-fluorokanamycin B derivatives and processes for the production thereof” (ZAIDAN HOJIN BISEIBUTSU KAGAKU KENKYU KAI, priority 1986, dated 1988)
Converted amounts (≈) assume the structure as drawn. Like-named read-outs stand apart in the source and are kept apart here.

Experiments:
in vivo = settings: mouse, iv
Escherichia coli K-12 R5 = experiment: MIC, serial dilution on Mueller Hinton agar; type: cell-based; settings: K12R5, 18 h
Providencia sp. Pv 16 = experiment: MIC, serial dilution on Mueller Hinton agar; type: cell-based
Serratia marcescens = experiment: MIC, serial dilution on Mueller Hinton agar; type: cell-based
[1] = test system: Escherichia coli JR66/W677; experiment: microbe, parasite or virus in culture; type: cell-based; settings: JR66/W677, 18 h
[2] = test system: Pseudomonas aeruginosa A3; experiment: MIC, serial dilution on Mueller Hinton agar; type: cell-based
[3] = test system: Staphylococcus aureus 209P; experiment: MIC, serial dilution on Mueller Hinton agar; type: cell-based
[4] = test system: Pseudomonas aeruginosa GN 315; experiment: MIC, serial dilution on Mueller Hinton agar; type: cell-based; settings: GN315; Pseudomonas aeruginosa GN 315, resistance mechanism AAC(6'); Mueller Hinton agar, 37°C, 18 hours; read-out: MIC.
Mycobacterium 607 = experiment: MIC, serial dilution on Mueller Hinton agar; type: cell-based
[5] = test system: Staphylococcus aureus Ap01; experiment: MIC, serial dilution on Mueller Hinton agar; type: cell-based
Proteus rettgeri GN 311 = experiment: MIC, serial dilution on Mueller Hinton agar; type: cell-based; settings: Providencia rettgeri
Escherichia coli JR225 = experiment: microbe, parasite or virus in culture; type: cell-based; settings: Escherichia coli, JR225, 18 h
[6] = test system: Escherichia coli K-12 ML 1629; experiment: MIC, serial dilution on Mueller Hinton agar; type: cell-based; settings: K12ML1629, Escherichia coli K-12 ML 1629, resistance mechanism APH(3')-I, 37°C, 18 hours
[7] = test system: Corynebacterium bovis 1810; experiment: MIC, serial dilution on Mueller Hinton agar; type: cell-based
[8] = test system: Escherichia coli K-12 LA 290 R55; experiment: MIC, serial dilution on Mueller Hinton agar; type: cell-based; settings: Escherichia coli, K12LA290R55, 18 h
[9] = test system: Klebsiella pneumoniae 22#3038; experiment: MIC, serial dilution on Mueller Hinton agar; type: cell-based; settings: Klebsiella pneumoniae 22#3038, resistance mechanism APH(3')-II, ANT(2"), 37°C, 18 hours
Text: The antibacterial spectra so determined of the new compounds No. 1 to No. 13 (each in the form of the free base) of this invention are as shown in Table 1 below.

Escherichia coli K-12 = experiment: MIC, serial dilution on Mueller Hinton agar; type: cell-based
Bacillus subtilis PCI219 = experiment: MIC, serial dilution on Mueller Hinton agar; type: cell-based
[10] = test system: Staphylococcus aureus Ap 01; experiment: Antibacterial activity against resistant strain (background statement); type: cell-based; settings: Staphylococcus aureus Ap 01, resistant strain producing enzyme reacting with the 4'-hydroxyl group
[11] = test system: Staphylococcus epidermidis 109; experiment: as above; type: cell-based; settings: Staphylococcus epidermidis 109, resistant strain producing enzyme reacting with the 4'-hydroxyl group
[12] = SP.PV16, Providencia sp. Pv 16, resistance mechanism AAC(2'), Mueller Hinton agar, 37°C, 18 hours, read-out: MIC.
[13] = Pseudomonas aeruginosa A3, Mueller Hinton agar, 37°C, 18 hours, read-out: MIC.
[14] = Staphylococcus aureus 209P, Mueller Hinton agar, 37°C, 18 hours, read-out: MIC.
[15] = Mycobacterium 607, Mueller Hinton agar, 37°C, incubated for 40 hours, read-out: MIC.
[16] = Staphylococcus aureus Ap01, resistance mechanism ANT(4'), Mueller Hinton agar, 37°C, 18 hours, read-out: MIC.
[17] = GN311, Proteus rettgeri GN 311, Mueller Hinton agar, 37°C, 18 hours, read-out: MIC.
[18] = Corynebacterium bovis 1810, Mueller Hinton agar, 37°C, 18 hours, read-out: MIC.
[19] = K12, Escherichia coli K-12, Mueller Hinton agar, 37°C, 18 hours, read-out: MIC.
[20] = Bacillus subtilis PCI219, Mueller Hinton agar, 37°C, 18 hours, read-out: MIC.
[21] = Mueller Hinton agar, 37°C, 18 hours, read-out: MIC.

| SMILES | LD50 (in vivo) | MIC (Escherichia coli K-12 R5) | MIC (Providencia sp. Pv 16; [12]) | MIC [1] | MIC [2, 13] | MIC [3, 14] | MIC [4] | MIC (Mycobacterium 607; [15]) | MIC [5, 16] | MIC (Proteus rettgeri GN 311; [17]) | MIC (Escherichia coli JR225) | MIC [6] | MIC [7, 18] | MIC [8] | MIC [9] | MIC (Escherichia coli K-12; [19]) | MIC (Bacillus subtilis PCI219; [20]) | MIC (Serratia marcescens; [21]) | also measured |
| --- | --- | --- | --- | --- | --- | --- | --- | --- | --- | --- | --- | --- | --- | --- | --- | --- | --- | --- | --- |
| NCC[C@H](O)C(=O)N[C@@H]1C[C@H](N)[C@@H](O[C@H]2O[C@H](CN)[C@@H](O)C[C@H]2N)[C@H](F)[C@H]1O[C@H]1O[C@H](CO)[C@@H](O)[C@H](N)[C@H]1O [Compound No. 9, 1-N-(4-Amino-2-(S)-hydroxybutyryl)-5,3'-dideoxy-5-fluorokanamycin B] | 150 mg/kg | 3.12 mg/L (≈ 5.47 µM) | 0.78 mg/L (≈ 1.37 µM) | 0.78 mg/L (≈ 1.37 µM) | 0.39 mg/L (≈ 0.683 µM) | 0.39 mg/L (≈ 0.683 µM) | 6.25 mg/L (≈ 11 µM) | 0.78 mg/L (≈ 1.37 µM) | 0.78 mg/L (≈ 1.37 µM) | < 0.2 mg/L | 0.39 mg/L (≈ 0.683 µM) | 0.78 mg/L (≈ 1.37 µM) | < 0.2 mg/L | 0.78 mg/L (≈ 1.37 µM) | 1.56 mg/L (≈ 2.73 µM) | < 0.2 mg/L | < 0.2 mg/L |  | MIC (Serratia marcescens; 18 h): 3.12 mg/L (≈ 5.47 µM) |
| NC[C@H]1O[C@H](O[C@H]2[C@H](O)[C@@H](O[C@H]3O[C@H](CO)[C@@H](O)[C@H](N)[C@H]3O)[C@H](N)C[C@@H]2N)[C@H](N)C[C@@H]1O [TMB, 3'-deoxykanamycin B, reference compound] | 80 mg/kg | 100 mg/L (≈ 214 µM) | 6.25 mg/L (≈ 13.4 µM) | 12.5 mg/L (≈ 26.7 µM) | < 0.2 mg/L | < 0.2 mg/L | 50 mg/L (≈ 107 µM) |  | 1.56 mg/L (≈ 3.34 µM) | 0.2 mg/L (≈ 0.428 µM) | 25 mg/L (≈ 53.5 µM) |  | 6.25 mg/L (≈ 13.4 µM) | 25 mg/L (≈ 53.5 µM) | 12.5 mg/L (≈ 26.7 µM) | 0.39 mg/L (≈ 0.834 µM) | < 0.2 mg/L |  | MIC (Serratia marcescens; 18 h): 12.5 mg/L (≈ 26.7 µM) |
| NC[C@H]1O[C@H](O[C@H]2[C@H](F)[C@@H](O[C@H]3O[C@H](CO)[C@@H](O)[C@H](N)[C@H]3O)[C@H](N)C[C@@H]2N)[C@H](N)C[C@@H]1O [Compound No. 2, 5,3'-Dideoxy-5-fluorokanamycin B] | 200 mg/kg | 25 mg/L (≈ 53.2 µM) |  |  | < 0.2 mg/L | 0.39 mg/L (≈ 0.831 µM) | 50 mg/L (≈ 106 µM) |  | 0.39 mg/L (≈ 0.831 µM) | < 0.2 mg/L |  |  | 1.56 mg/L (≈ 3.32 µM) | 3.12 mg/L (≈ 6.65 µM) | 3.12 mg/L (≈ 6.65 µM) | < 0.2 mg/L |  | 6.25 mg/L (≈ 13.3 µM) | MIC (Providencia sp. Pv 16; Providencia, SP.PV16, 18 h): 3.12 mg/L (≈ 6.65 µM) |
| NCC1OC(OC2C(N)CC(N)C(OC3OC(CO)C(O)C(N)C3O)C2O)C(N)C(F)C1O (stereo not shown) [3'-fluoro-3'-deoxykanamycin B] |  |  |  |  |  |  |  |  |  |  |  |  |  |  |  |  |  |  | antibacterial activity [10]: low antibacterial activity; antibacterial activity [11]: low antibacterial activity |
| NC[C@H]1O[C@H](O[C@H]2[C@H](O)[C@@H](O[C@H]3O[C@H](CO)[C@@H](O)[C@H](N)[C@H]3O)[C@H](N)C[C@@H]2N)[C@H](N)[C@@H](O)[C@@H]1O [KMB, kanamycin B] | 110 mg/kg | 50 mg/L (≈ 103 µM) |  | > 100 mg/L |  |  | 50 mg/L (≈ 103 µM) | 1.56 mg/L (≈ 3.23 µM) | 25 mg/L (≈ 51.7 µM) |  | 12.5 mg/L (≈ 25.9 µM) | > 100 mg/L | 0.78 mg/L (≈ 1.61 µM) | 12.5 mg/L (≈ 25.9 µM) | > 100 mg/L |  |  | 3.12 mg/L (≈ 6.45 µM) | MIC (Providencia sp. Pv 16; Providencia, SP.PV16, 18 h): 12.5 mg/L (≈ 25.9 µM); MIC ([2]; Pseudomonas aeruginosa, A3, 18 h): 1.56 mg/L (≈ 3.23 µM); MIC ([3]; Staphylococcus aureus, 209P, 18 h): 0.39 mg/L (≈ 0.807 µM); MIC (Proteus rettgeri GN 311; GN311, 18 h): 0.2 mg/L (≈ 0.414 µM); MIC (Escherichia coli K-12; Escherichia coli, K12, 18 h): 0.39 mg/L (≈ 0.807 µM); MIC (Bacillus subtilis PCI219; Bacillus subtilis, PCI219, 18 h): < 0.2 mg/L |
| NC[C@@H]1CC[C@@H](N)[C@@H](O[C@H]2[C@H](F)[C@@H](O[C@H]3O[C@H](CO)[C@@H](O)[C@H](N)[C@H]3O)[C@H](N)C[C@@H]2N)O1 [Compound No. 4, 5,3',4'-Trideoxy-5-fluorokanamycin B] | 140 mg/kg | 100 mg/L (≈ 221 µM) | 12.5 mg/L (≈ 27.6 µM) | 3.12 mg/L (≈ 6.88 µM) | 0.39 mg/L (≈ 0.86 µM) | 0.78 mg/L (≈ 1.72 µM) | 100 mg/L (≈ 221 µM) |  |  | 0.78 mg/L (≈ 1.72 µM) | 3.12 mg/L (≈ 6.88 µM) | 3.12 mg/L (≈ 6.88 µM) |  | 6.25 mg/L (≈ 13.8 µM) | 6.25 mg/L (≈ 13.8 µM) |  | 0.78 mg/L (≈ 1.72 µM) | 12.5 mg/L (≈ 27.6 µM) | MIC (Mycobacterium 607; Mycobacterium, 607, 40 h): 6.25 mg/L (≈ 13.8 µM); MIC ([5]; Staphylococcus aureus, AP01, 18 h): 3.12 mg/L (≈ 6.88 µM); MIC ([7]; Corynebacterium bovis, 1810, 18 h): 6.25 mg/L (≈ 13.8 µM); MIC (Escherichia coli K-12; Escherichia coli, K12, 18 h): 3.12 mg/L (≈ 6.88 µM) |
| NCC[C@H](O)C(=O)N[C@@H]1C[C@H](N)[C@@H](O[C@H]2O[C@H](CN)CC[C@H]2N)[C@H](F)[C@H]1O[C@H]1O[C@H](CO)[C@@H](O)[C@H](N)[C@H]1O [Compound No. 13, 1-N-(4-Amino-2-(S)-hydroxybutyryl)-5,3',4-trideoxy-5-fluorokanamycin B] | 150 mg/kg | 50 mg/L (≈ 90.2 µM) | 0.78 mg/L (≈ 1.41 µM) | 0.78 mg/L (≈ 1.41 µM) | 0.39 mg/L (≈ 0.703 µM) | 0.39 mg/L (≈ 0.703 µM) | 6.25 mg/L (≈ 11.3 µM) | 0.78 mg/L (≈ 1.41 µM) | 0.78 mg/L (≈ 1.41 µM) | < 0.2 mg/L | 0.2 mg/L (≈ 0.361 µM) | 0.39 mg/L (≈ 0.703 µM) | < 0.2 mg/L | 0.78 mg/L (≈ 1.41 µM) | 0.78 mg/L (≈ 1.41 µM) | 0.2 mg/L (≈ 0.361 µM) | 0.39 mg/L (≈ 0.703 µM) | 1.56 mg/L (≈ 2.81 µM) |  |
